Source: ChEMBL document CHEMBL5236598, “Lead Optimization and Avoidance of Metabolic-perturbing Motif Developing Novel Diarylpyrimidines as Potent HIV-1 NNRTIs” (J Med Chem, 2022)
Values after ≈ are worked out from the molar mass of the structure shown.

Assays:
[1] = tested on: Human immunodeficiency virus 1; test: Antiviral activity against HIV-1 harboring RT Y188L mutant infected in human MT4 cells assessed as protection against virus-induced cytopathic effect incubated for 5 days by MTT assay; format: functional, organism-based; details: Human immunodeficiency virus 1, MT4, 120 h
[2] = tested on: Human immunodeficiency virus 1; test: Antiviral activity against HIV-1 harboring RT K103N mutant infected in human MT4 cells assessed as protection against virus-induced cytopathic effect incubated for 5 days by MTT assay; format: functional, organism-based; details: Human immunodeficiency virus 1, MT4, 120 h
[3] = Selectivity index, ratio of CC50 for cytotoxicity against human MT4 cells to EC50 for antiviral activity against wild type HIV-1 IIIB infected in human MT4 cells; format: toxicity, cell-based; details: read-out: Ratio CC50/EC50
[4] = Selectivity index, ratio of CC50 for cytotoxicity against human MT4 cells to EC50 for antiviral activity against HIV-1 RES056 harboring RT K103N/Y181C double mutant infected in human MT4 cells; format: toxicity, cell-based; details: read-out: Ratio CC50/EC50
[5] = tested on: Human immunodeficiency virus 1; test: Antiviral activity against HIV-1 harboring RT Y181C mutant infected in human MT4 cells assessed as protection against virus-induced cytopathic effect incubated for 5 days by MTT assay; format: functional, organism-based; details: Human immunodeficiency virus 1, MT4, 120 h
[6] = tested on: Human immunodeficiency virus 1; test: Antiviral activity against HIV-1 harboring RT E138K mutant infected in human MT4 cells assessed as protection against virus-induced cytopathic effect incubated for 5 days by MTT assay; format: functional, organism-based; details: Human immunodeficiency virus 1, MT4, 120 h
[7] = molecular target: T1, Human immunodeficiency virus type 1 reverse transcriptase (Human immunodeficiency virus 1, UniProt Q72547); test: Inhibition of wild type recombinant HIV-1 reverse transcriptase using biotin-labelled dNTPs as substrate assessed as inhibition of biotin-labelled UTP incorporation incubated for 1 hr by ELISA
[8] = tested on: Human immunodeficiency virus 1; test: Antiviral activity against HIV-1 harboring RT F227L/V106A double mutant infected in human MT4 cells assessed as protection against virus-induced cytopathic effect incubated for 5 days by MTT assay; format: functional, organism-based; details: Human immunodeficiency virus 1, MT4, 120 h
[9] = tested on: Human immunodeficiency virus 1; test: Antiviral activity against HIV-1 RES056 harboring RT K103N/Y181C double mutant infected in human MT4 cells assessed as protection against virus-induced cytopathic effect incubated for 5 days by MTT assay; format: functional, organism-based; details: Human immunodeficiency virus 1, RES056, MT4, 120 h
[10] = Cytotoxicity against human MT4 cells assessed as reduction in cell viability measured after 5 days by MTT assay; format: toxicity, cell-based; details: time 5 day
[11] = tested on: Human immunodeficiency virus 1; test: Antiviral activity against HIV-1 harboring RT L100I mutant infected in human MT4 cells assessed as protection against virus-induced cytopathic effect incubated for 5 days by MTT assay; format: functional, organism-based; details: Human immunodeficiency virus 1, MT4, 120 h
[12] = tested on: Human immunodeficiency virus 1; test: Antiviral activity against wild type HIV-1 IIIB infected in human MT4 cells assessed as protection against virus-induced cytopathic effect incubated for 5 days by MTT assay; format: functional, organism-based; details: Human immunodeficiency virus 1, IIIB, MT4, 120 h
[13] = Aqueous solubility of compound at pH 7 at 0.1 to 10 mg; format: physicochemical; details: aqueous medium, dose 0.1-10 mg
[14] = Aqueous solubility of compound at pH 7.4 at 0.1 to 10 mg; format: physicochemical; details: aqueous medium, dose 0.1-10 mg
[15] = Aqueous solubility of compound at pH 2 at 0.1 to 10 mg; format: physicochemical; details: aqueous medium, dose 0.1-10 mg
[16] = molecular target: T1, Human immunodeficiency virus type 1 reverse transcriptase; test: Binding affinity to HIV-1 reverse transcriptase assessed as dissociation constant by SPR analysis
[17] = tested on: Human immunodeficiency virus 1; test: Potency index, ratio of Etravirine EC50 to test compound EC50 for antiviral activity against HIV-1 harboring RT K103N mutant infected in human MT4 cells assessed as protection against virus-induced cytopathic effect incubated for 5 days by MTT assay; format: functional; details: time 5 day
[18] = tested on: Human immunodeficiency virus 1; test: Potency index, ratio of Etravirine EC50 to test compound EC50 for antiviral activity against HIV-1 harboring RT E138K mutant infected in human MT4 cells assessed as protection against virus-induced cytopathic effect incubated for 5 days by MTT assay; format: functional; details: time 5 day

SMILES | EC50 [1] [nM] | EC50 [2] [nM] | selectivity ratio [3] | selectivity ratio [4] | EC50 [5] [nM] | EC50 [6] [nM] | IC50 [7] [nM] | EC50 [8] [nM] | EC50 [9] [nM] | CC50 at 120 h [10] [nM] | EC50 [11] [nM] | EC50 [12] [nM] | solubility [13] [µg/mL] | solubility [14] [µg/mL] | solubility [15] [µg/mL] | Kd [16] [nM] | Ratio EC50 [17] | Ratio EC50 [18]
N#C/C=C/c1cc(F)c(Oc2nc(Nc3ccc(C#N)c(F)c3)nc3c2COC3)c(F)c1 | 214 | 2.41 | 145000 | 773 | 13.9 | 3.45 | 30 | 384 | 314 | 243000 | 6.9 | 1.67 | – | – | – | – | – | –
Cc1cc(C#N)cc(C)c1Oc1nc(Nc2ccc(C#N)cc2)nc(N)c1Br [ETRAVIRINE] | 25.1 | 4.3 | – | – | – | 18.1 | – | 25.4 | 76.2 | > 4610 | – | 3.3 | – | – | – | – | – | –
Cc1cc(/C=C/C#N)cc(C)c1Oc1nc(Nc2ccc(C#N)c(F)c2)nc2c1COC2 | 13.2 | 2.87 | 20600 | 857 | 10.2 | 9.77 | 50 | 19.8 | 53.3 | 45600 | 3.04 | 2.22 | 12.3 (≈ 28.8 µM) | 5.7 (≈ 13.3 µM) | 23.1 (≈ 54 µM) | 2500 | – | –
N#C/C=C/c1cc(F)c(Oc2nc(Nc3ccc(C#N)nc3)nc3ccsc23)c(F)c1 | > 47500 | 2.55 | 26500 | 22 | 66.5 | 7.46 | 40 | 1450 | 2200 | 47500 | 19.2 | 1.79 | – | – | – | – | 2 | 2
Cc1cc(/C=C/C#N)cc(C)c1Oc1nc(Nc2ccc(C#N)nc2)nc2c1COC2 | 44.6 | 1.34 | 88900 | 2980 | 9.75 | 3.23 | 40 | 110 | 71.7 | 213000 | 6.64 | 2.4 | – | – | – | – | – | –
Cc1cc(-c2ccc(C#N)cc2)cc(C)c1Oc1nc(Nc2ccc(C#N)nc2)nc2sccc12 | – | – | 16600 | 119 | – | – | – | – | 1520 | 181000 | – | 10.9 | – | – | – | – | – | –
Cc1cc(C#N)cc(C)c1Oc1nc(NC2CCN(c3ccc(N)cc3F)CC2)nc2sccc12 | – | – | 1300 | 10 | – | – | – | – | 2600 | 26900 | – | 20.7 | – | – | – | – | – | –
N#C/C=C/c1cc(F)c(Oc2nc(Nc3ccc(C#N)nc3)nc3sccc23)c(F)c1 | – | – | 1840 | 1.7 | – | – | – | – | 7560 | 12800 | – | 6.98 | – | – | – | – | – | –
